These results are taken from BindingDB's records for patent US20230322769 (Jiangsu Chia Tai Fenghai Pharmaceutical, 2023).

pIC50: −log10 of the molar value. “And” between values parts separate entries of the source, which are not always exact repeats. Identical values can stand only once.

Data set [1] deals with Proto-oncogene tyrosine-protein kinase receptor Ret (Homo sapiens, UniProt P07949). Description: Inhibition of RET Family Kinases Activity.
For data set [2], the target named is Proto-oncogene tyrosine-protein kinase receptor Ret [M918T] (Homo sapiens, UniProt P07949, M918T). The data set can be described thus: Inhibition of RET Family Kinases Activity.
Proto-oncogene tyrosine-protein kinase receptor Ret [M918T], sequence (P07949 29-1114 M918T limits assumed): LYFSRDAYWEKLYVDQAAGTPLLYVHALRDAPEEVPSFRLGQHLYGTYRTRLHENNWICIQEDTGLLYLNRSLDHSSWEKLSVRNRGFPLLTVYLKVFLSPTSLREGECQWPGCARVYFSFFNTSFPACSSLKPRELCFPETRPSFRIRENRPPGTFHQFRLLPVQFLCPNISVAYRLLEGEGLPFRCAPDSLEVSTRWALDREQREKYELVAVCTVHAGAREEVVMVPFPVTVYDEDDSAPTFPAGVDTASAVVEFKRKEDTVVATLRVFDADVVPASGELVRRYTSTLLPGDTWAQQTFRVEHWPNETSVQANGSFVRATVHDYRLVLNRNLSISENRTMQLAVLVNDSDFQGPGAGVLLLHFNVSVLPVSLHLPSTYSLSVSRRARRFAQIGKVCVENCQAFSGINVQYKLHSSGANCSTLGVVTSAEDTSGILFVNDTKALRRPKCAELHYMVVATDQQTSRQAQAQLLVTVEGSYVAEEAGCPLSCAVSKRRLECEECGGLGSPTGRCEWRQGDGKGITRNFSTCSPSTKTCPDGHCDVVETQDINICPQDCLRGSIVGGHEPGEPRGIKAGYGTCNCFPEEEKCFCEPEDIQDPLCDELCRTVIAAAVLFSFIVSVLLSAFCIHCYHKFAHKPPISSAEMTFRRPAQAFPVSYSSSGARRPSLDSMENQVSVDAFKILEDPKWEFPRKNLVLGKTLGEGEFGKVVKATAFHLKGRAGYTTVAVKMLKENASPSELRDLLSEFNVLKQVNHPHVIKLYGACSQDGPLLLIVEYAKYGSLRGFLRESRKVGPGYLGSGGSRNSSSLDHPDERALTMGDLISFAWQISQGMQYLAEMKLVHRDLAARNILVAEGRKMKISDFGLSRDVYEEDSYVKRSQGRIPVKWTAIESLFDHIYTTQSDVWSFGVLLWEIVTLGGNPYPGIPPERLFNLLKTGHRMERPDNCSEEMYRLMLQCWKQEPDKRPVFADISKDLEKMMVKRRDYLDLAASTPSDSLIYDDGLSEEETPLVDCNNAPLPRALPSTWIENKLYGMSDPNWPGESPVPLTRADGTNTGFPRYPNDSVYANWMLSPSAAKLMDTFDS
Data set [3] addresses Vascular endothelial growth factor receptor 2 (Homo sapiens, UniProt P35968). Description: Inhibition of RET Family Kinases Activity.
Data set [4] concerns the target Coiled-coil domain-containing protein 6/Proto-oncogene tyrosine-protein kinase receptor Ret (Homo sapiens, UniProt P07949). The data set can be described thus: Inhibition of RET Family Kinases Activity.
Data set [5] addresses Proto-oncogene tyrosine-protein kinase receptor Ret [V804M] (Human, UniProt P07949, V804M). The data set can be described thus: Inhibition of RET Family Kinases Activity.
The target in data set [6] is Potassium voltage-gated channel subfamily H member 2 (Homo sapiens, UniProt Q12809). The data set can be described thus: Inhibition of hERG Potassium Channel. Here is the method:
Whole-cell patch-clamp recording was carried out. […] This procedure was repeated every 20 seconds. The hERG tail current was a pure hERG current.

Proto-oncogene tyrosine-protein kinase receptor Ret, sequence (P07949 whole entry): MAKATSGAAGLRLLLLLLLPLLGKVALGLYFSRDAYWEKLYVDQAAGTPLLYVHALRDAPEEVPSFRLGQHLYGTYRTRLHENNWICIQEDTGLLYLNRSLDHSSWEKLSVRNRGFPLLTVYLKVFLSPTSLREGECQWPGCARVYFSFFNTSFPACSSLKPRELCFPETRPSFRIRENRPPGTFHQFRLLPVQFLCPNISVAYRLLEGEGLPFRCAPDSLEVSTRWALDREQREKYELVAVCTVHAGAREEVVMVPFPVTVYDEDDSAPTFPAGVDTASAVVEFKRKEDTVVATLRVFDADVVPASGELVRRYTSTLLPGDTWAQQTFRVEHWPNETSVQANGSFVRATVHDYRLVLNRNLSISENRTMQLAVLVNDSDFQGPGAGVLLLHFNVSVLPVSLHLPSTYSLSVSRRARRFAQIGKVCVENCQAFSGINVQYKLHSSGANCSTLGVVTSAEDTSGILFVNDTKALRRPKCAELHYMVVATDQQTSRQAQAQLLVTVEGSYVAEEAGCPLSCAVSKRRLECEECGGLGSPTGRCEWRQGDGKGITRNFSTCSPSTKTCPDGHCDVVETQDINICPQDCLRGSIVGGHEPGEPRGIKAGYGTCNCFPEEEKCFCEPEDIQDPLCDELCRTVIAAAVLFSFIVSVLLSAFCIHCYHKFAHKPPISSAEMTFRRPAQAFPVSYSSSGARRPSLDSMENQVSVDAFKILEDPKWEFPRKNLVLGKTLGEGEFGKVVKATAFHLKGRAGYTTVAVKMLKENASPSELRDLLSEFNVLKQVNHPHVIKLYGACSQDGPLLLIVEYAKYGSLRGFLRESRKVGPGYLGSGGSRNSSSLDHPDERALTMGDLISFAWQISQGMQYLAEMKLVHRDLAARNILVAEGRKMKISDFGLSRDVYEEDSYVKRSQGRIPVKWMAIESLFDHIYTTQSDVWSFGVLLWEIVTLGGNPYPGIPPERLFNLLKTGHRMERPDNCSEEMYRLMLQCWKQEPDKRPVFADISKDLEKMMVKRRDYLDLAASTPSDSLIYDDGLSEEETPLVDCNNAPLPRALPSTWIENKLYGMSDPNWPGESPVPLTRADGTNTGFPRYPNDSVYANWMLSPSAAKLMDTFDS
Coiled-coil domain-containing protein 6/Proto-oncogene tyrosine-protein kinase receptor Ret, sequence (P07949 whole entry, the tested form may be a part): as the sequence (P07949 whole entry) above
Coiled-coil domain-containing protein 6/Proto-oncogene tyrosine-protein kinase receptor Ret, sequence (Q16204 whole entry, further chain, the tested form may be a part): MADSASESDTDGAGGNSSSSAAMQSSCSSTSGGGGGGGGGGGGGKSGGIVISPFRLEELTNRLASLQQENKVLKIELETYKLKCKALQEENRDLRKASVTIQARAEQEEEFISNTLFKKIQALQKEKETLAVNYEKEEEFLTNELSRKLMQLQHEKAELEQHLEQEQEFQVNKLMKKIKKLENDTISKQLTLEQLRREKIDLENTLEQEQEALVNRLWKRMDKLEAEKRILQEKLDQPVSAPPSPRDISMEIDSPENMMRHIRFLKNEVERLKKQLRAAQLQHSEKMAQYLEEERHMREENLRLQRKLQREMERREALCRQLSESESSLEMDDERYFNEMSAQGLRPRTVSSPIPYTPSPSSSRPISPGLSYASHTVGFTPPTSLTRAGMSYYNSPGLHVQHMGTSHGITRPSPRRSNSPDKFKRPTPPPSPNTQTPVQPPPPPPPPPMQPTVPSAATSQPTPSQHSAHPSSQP
Proto-oncogene tyrosine-protein kinase receptor Ret [V804M], sequence (P07949 29-1114 V804M limits assumed): as the sequence (P07949 29-1114 M918T limits assumed) above, with V776M, T890M counted along it
Vascular endothelial growth factor receptor 2, sequence (P35968 whole entry, the tested form may be a part): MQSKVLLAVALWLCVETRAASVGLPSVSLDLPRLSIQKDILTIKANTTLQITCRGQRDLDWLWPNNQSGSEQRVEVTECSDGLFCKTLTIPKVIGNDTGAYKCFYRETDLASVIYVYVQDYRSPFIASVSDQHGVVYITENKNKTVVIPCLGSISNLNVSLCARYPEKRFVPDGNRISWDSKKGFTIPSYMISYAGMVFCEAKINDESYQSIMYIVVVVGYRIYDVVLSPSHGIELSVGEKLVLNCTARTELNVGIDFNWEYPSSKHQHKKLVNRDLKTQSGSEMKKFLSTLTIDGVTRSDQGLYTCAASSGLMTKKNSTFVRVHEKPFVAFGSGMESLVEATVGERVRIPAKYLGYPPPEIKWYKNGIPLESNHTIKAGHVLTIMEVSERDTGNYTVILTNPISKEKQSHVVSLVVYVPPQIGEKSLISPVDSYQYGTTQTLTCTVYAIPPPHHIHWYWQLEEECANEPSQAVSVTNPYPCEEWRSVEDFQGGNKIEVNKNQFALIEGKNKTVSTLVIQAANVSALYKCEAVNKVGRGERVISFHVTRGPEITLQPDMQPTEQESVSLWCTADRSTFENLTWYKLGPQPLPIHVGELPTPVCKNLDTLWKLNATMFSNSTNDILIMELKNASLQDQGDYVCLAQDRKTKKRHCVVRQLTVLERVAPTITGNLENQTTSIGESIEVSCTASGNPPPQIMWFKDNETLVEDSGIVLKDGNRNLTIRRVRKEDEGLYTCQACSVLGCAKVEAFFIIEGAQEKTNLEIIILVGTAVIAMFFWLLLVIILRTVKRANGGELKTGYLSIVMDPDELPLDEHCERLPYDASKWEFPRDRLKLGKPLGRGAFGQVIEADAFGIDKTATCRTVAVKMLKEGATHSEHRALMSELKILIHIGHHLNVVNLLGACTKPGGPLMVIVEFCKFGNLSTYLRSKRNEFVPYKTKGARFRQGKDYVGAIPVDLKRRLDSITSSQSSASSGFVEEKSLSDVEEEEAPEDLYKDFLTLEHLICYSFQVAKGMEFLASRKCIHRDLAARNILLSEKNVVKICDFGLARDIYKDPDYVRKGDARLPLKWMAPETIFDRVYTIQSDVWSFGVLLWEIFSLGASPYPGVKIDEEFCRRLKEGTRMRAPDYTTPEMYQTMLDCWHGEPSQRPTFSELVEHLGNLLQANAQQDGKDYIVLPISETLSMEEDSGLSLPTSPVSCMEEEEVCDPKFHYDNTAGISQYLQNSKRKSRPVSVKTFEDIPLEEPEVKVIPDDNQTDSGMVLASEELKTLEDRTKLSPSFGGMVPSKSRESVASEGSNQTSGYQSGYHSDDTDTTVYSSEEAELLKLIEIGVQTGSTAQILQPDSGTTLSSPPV

For the molecule `COc1ccc(CN2C3CC2CN(c2ccc(-c4cc(N5CC6CC(C5)N6)cn5ncc(C#N)c45)cn2)C3)cn1` [US20230322769, Compound 16], the negative-log IC50 (pIC50) in data set [1] was 8.08; in data set [2], 8.62; in data set [3], 6.39; in data set [4] it was 8.44; in data set [5] it was 8.32.
As to `COc1ccc(CN(C)CCN(C)c2ccc(-c3cc(-c4cnn(C)c4)cn4ncc(C#N)c34)cn2)cn1` [US20230322769, Compound 17-a], the pIC50 in data set [1] was 7.55; in data set [2], 7.32; in data set [4] it was 7.76; in data set [5], 6.89.
As to `COc1ccc(CN2C3CC2CN(c2ccc(-c4cc(N5CC6CC(C5)N6C)cn5ncc(C#N)c45)cn2)C3)cn1` [US20230322769, Compound 17], the pIC50 was 8.26 in data set [1], 8.77 in data set [2], 6.26 in data set [3] and 8.42 in data set [5].
For the molecule `COc1ccc(CN2C3CC2CN(c2ccc(-c4cc(N5CCP(C)(=O)CC5)cn5ncc(C#N)c45)cn2)C3)cn1` [US20230322769, Compound 20], the pIC50 in data set [1] is 8.39; in data set [2], 8.84; in data set [3], 6.47; in data set [4] it was 8.67; in data set [5] it was 8.49.
Turning to `COc1ccc(CN2CCN(c3nc(-c4cc(-c5cnn(C)c5)cn5ncc(C#N)c45)cs3)CC2)cn1` [US20230322769, Compound 39], the pIC50 in data set [1] is 7.01; in data set [2], 6.49; in data set [5], 6.07.
In the same order, the values of `COc1ccc(CN2CCC(n3cc(-c4cc(-c5cnn(C)c5)cn5ncc(C#N)c45)cn3)CC2)cn1` [US20230322769, Compound 43] are 7.51, 7.27 and 6.62.
Turning to `COc1ccc(CN2C3CC2CN(c2ccc(-c4cc(N5CCOCC5)cn5ncc(C#N)c45)cn2)C3)cn1` [US20230322769, Compound 65], the pIC50 in data set [1] was 8.96; in data set [2], 9.04; in data set [3] it was 7.03; in data set [4] it was 9.28; in data set [5], 8.47.
As for `COc1ccc(CN2C3CC2CN(c2ccc(-c4cc(-c5cc6n(n5)CCC6)cn5ncc(C#N)c45)cn2)C3)cn1` [US20230322769, Compound 66], the pIC50 in data set [1] was 8.65; in data set [2], 8.39; in data set [5], 8.36 and 8.11.
Turning to `COc1ccc(C(=O)N2CCN(c3ccc(-c4cc(-c5cc6n(n5)CCC6)cn5ncc(C#N)c45)cn3)CC2)cn1` [US20230322769, Compound 68], the pIC50 in data set [1] was 7.90; in data set [2], 7.97; in data set [3], 6.73; in data set [4], 8.22; in data set [5], 7.58.
As to `COc1ccc(CN2CCCN(c3ccc(-c4cc(-c5cc6n(n5)CCC6)cn5ncc(C#N)c45)cn3)CC2)cn1` [US20230322769, Compound 70], the pIC50 in data set [1] is 7.58; in data set [2], 7.37; in data set [3], 6.41; in data set [4] it was 7.51; in data set [5], 6.95; in data set [6], 5.32.
For `COc1ccc(CN2C3CC2CN(c2ccc(-c4cc(NCC(C)(C)O)cn5ncc(C#N)c45)cn2)C3)cn1` [US20230322769, Compound 78], the pIC50 in data set [1] was 8.89; in data set [2], 8.26; in data set [3], 7.28; in data set [4], 8.34; in data set [5] it was 8.08.
As for `COc1ccc(CN2C3CC2CN(c2ccc(-c4cc(N5CC(C)(C)OC5C5CC5)cn5ncc(C#N)c45)cn2)C3)cn1` (stereo unspecified) [US20230322769, Compound 80], the values for the pIC50 in data set [1] and in data set [3] were 7.67 and 6.25, respectively.
Turning to `COc1ccc(CN2C3CC2CN(c2ccc(-c4cc(N(CC5CC5)CC(C)(C)O)cn5ncc(C#N)c45)cn2)C3)cn1` [US20230322769, Compound 81], the pIC50 in data set [1] is 6.71; in data set [3] it was 6.21.
`COc1ccc(CN2C3CC2CN(c2ccc(-c4cc(N5CCCC(O)C5)cn5ncc(C#N)c45)cn2)C3)cn1` (stereo unspecified) [US20230322769, Compound 82]: the pIC50 in data set [1] was 7.97; in data set [3], 6.55.
For the molecule `COc1ccc(CN2C3CC2CN(c2ccc(-c4cc(N5CCOC(C)C5)cn5ncc(C#N)c45)cn2)C3)cn1` (stereo unspecified) [US20230322769, Compound 83], the pIC50 in data set [1] is 7.80.
Same read-out and setting: the value for `COc1ccc(CN2C3CC2CN(c2ccc(-c4cc(N5CCOC[C@@H]5C)cn5ncc(C#N)c45)cn2)C3)cn1` [US20230322769, Compound 84] was 7.61; that for `COc1ccc(CN2C3CC2CN(c2ccc(-c4cc(N5CCOC[C@H]5C)cn5ncc(C#N)c45)cn2)C3)cn1` [US20230322769, Compound 85] was 7.72.
Take `COc1ccc(CN2C3CC2CN(c2ccc(-c4cc(N5CC(C)(O)C5)cn5ncc(C#N)c45)cn2)C3)cn1` [US20230322769, Compound 86]: the pIC50 in data set [1] was 8.34; in data set [3], 7.15.
In the same order, the values of `COc1ccc(CN2C3CC2CN(c2ccc(-c4cc(N5CC6(COC6)C5)cn5ncc(C#N)c45)cn2)C3)cn1` [US20230322769, Compound 88] are 8.14 and 7.01.
In the case of `COc1ccc(CN2C3CC2CN(c2ccc(-c4cc(N5CCN(C)C(=O)C5)cn5ncc(C#N)c45)cn2)C3)cn1` [US20230322769, Compound 89], the pIC50 in data set [1] was 9.17; in data set [2] it was 8.83; in data set [3], 6.80; in data set [4], 8.52; in data set [5], 8.33.
In the case of `COc1ccc(CN2C3CC2CN(c2ccc(-c4cc(N5CCN(C)CC5)cn5ncc(C#N)c45)cn2)C3)cn1` [US20230322769, Compound 94], the results for the pIC50 in data set [2], in data set [3] and in data set [4] were 8.56, 6.81 and 8.52, respectively.
Consider `COc1ccc(CN2C3CC2CN(c2ccc(-c4cc(N5CCNCC5)cn5ncc(C#N)c45)cn2)C3)cn1` [US20230322769, Compound 96], for which the pIC50 in data set [1] was 8.28; in data set [3], 6.62.
